# Reference: publication PMC4410398, “Influence of Drug Resistance Mutations on the Activity of HIV-1 Subtypes A and B Integrases: a Comparative Study” (Acta Naturae, 2015)
# Experiments:
# [1] = test system: HIV-1 subtype B (clone pNL4-3) carrying G118R; set-up: method as in PMID 24710029; settings: cited from earlier work
# [2] = test system: HIV-1 subtype CRF02_A/G isolate carrying a G118R substitution in the IN gene; set-up: method as in PMID 24710029; settings: HIV-1 subtype CRF02_A/G isolate carrying G118R in the IN gene; cited from earlier work
# INB G140S/Q148K = molecular target: T1, INB G140S/Q148K (Human immunodeficiency virus type 1 group M subtype B, UniProt P04585, G1287S/Q1295K); assay: Inhibition of homologous strand transfer reaction, INB G140S/Q148K; format: biochemical, HIV-1 subtype B strain HXB-2
# T1 construct: The viral enzyme integrase (IN), which catalyzes the integration; His6 (N); made in house; host or cells: Escherichia coli Rosetta (DE3), pET-15b
# [3] = molecular target: T2, INB (integrase of HIV-1 subtype B strain HXB-2), wild type (Human immunodeficiency virus type 1 group M subtype B, UniProt P04585); format: biochemical
# T2 construct: The viral enzyme integrase (IN), which catalyzes the integration; His6 (N); made in house; host or cells: Escherichia coli Rosetta (DE3), pET-15b
# INB G118R = molecular target: T3, INB G118R (Human immunodeficiency virus type 1 group M subtype B, UniProt P04585, G1265R); assay: Inhibition of homologous strand transfer reaction, INB G118R; format: biochemical, HIV-1 subtype B strain HXB-2
# T3 construct: The viral enzyme integrase (IN), which catalyzes the integration; His6 (N); made in house; host or cells: Escherichia coli Rosetta (DE3), pET-15b
# INA G140S = INA G140S (Human immunodeficiency virus type 1 group M subtype A, UniProt P24740, G1280S/S1259P); format: biochemical, HIV-1 subtype A strain FSU-A
# INA E138K = INA E138K (Human immunodeficiency virus type 1 group M subtype A, UniProt P24740, E1278K/S1259P); format: biochemical, HIV-1 subtype A strain FSU-A
# INA Q148K = INA Q148K (Human immunodeficiency virus type 1 group M subtype A, UniProt P24740, Q1288K/S1259P); format: biochemical, HIV-1 subtype A strain FSU-A
# INA G140S/Q148K = INA G140S/Q148K (Human immunodeficiency virus type 1 group M subtype A, UniProt P24740, G1280S/Q1288K/S1259P); format: biochemical, HIV-1 subtype A strain FSU-A
# INB E138K/Q148K = molecular target: T4, INB E138K/Q148K (Human immunodeficiency virus type 1 group M subtype B, UniProt P04585, E1285K/Q1295K); assay: Inhibition of homologous strand transfer reaction, INB E138K/Q148K; format: biochemical, HIV-1 subtype B strain HXB-2
# T4 construct: The viral enzyme integrase (IN), which catalyzes the integration; His6 (N); made in house; host or cells: Escherichia coli Rosetta (DE3), pET-15b
# INA E138K/Q148K = INA E138K/Q148K (Human immunodeficiency virus type 1 group M subtype A, UniProt P24740, E1278K/Q1288K/S1259P); format: biochemical, HIV-1 subtype A strain FSU-A
# INA G118R/E138K = INA G118R/E138K (Human immunodeficiency virus type 1 group M subtype A, UniProt P24740, E1278K/G1258R/S1259P); format: biochemical, HIV-1 subtype A strain FSU-A
# INB G118R/E138K = molecular target: T5, INB G118R/E138K (Human immunodeficiency virus type 1 group M subtype B, UniProt P04585, E1285K/G1265R); assay: Inhibition of homologous strand transfer reaction, INB G118R/E138K; format: biochemical, HIV-1 subtype B strain HXB-2
# T5 construct: The viral enzyme integrase (IN), which catalyzes the integration; His6 (N); made in house; host or cells: Escherichia coli Rosetta (DE3), pET-15b
# INB Q148K = molecular target: T6, INB Q148K (Human immunodeficiency virus type 1 group M subtype B, UniProt P04585, Q1295K); assay: Inhibition of homologous strand transfer reaction, INB Q148K; format: biochemical, HIV-1 subtype B strain HXB-2
# T6 construct: The viral enzyme integrase (IN), which catalyzes the integration; His6 (N); made in house; host or cells: Escherichia coli Rosetta (DE3), pET-15b
# INB = test system: INB; set-up: method as in PMID 23075516; settings: literature value for INB; cited from earlier work
# [4] = molecular target: INA (consensus integrase of HIV-1 subtype A strain FSU-A), wild type (Human immunodeficiency virus type 1 group M subtype A, UniProt P24740, S1259P); format: biochemical
# INB E138K = molecular target: T7, INB E138K (Human immunodeficiency virus type 1 group M subtype B, UniProt P04585, E1285K); assay: Inhibition of homologous strand transfer reaction, INB E138K; format: biochemical, HIV-1 subtype B strain HXB-2
# T7 construct: The viral enzyme integrase (IN), which catalyzes the integration; His6 (N); made in house; host or cells: Escherichia coli Rosetta (DE3), pET-15b
# INB G140S = molecular target: T8, INB G140S (Human immunodeficiency virus type 1 group M subtype B, UniProt P04585, G1287S); assay: Inhibition of homologous strand transfer reaction, INB G140S; format: biochemical, HIV-1 subtype B strain HXB-2
# T8 construct: The viral enzyme integrase (IN), which catalyzes the integration; His6 (N); made in house; host or cells: Escherichia coli Rosetta (DE3), pET-15b
# INA G118R = INA G118R (Human immunodeficiency virus type 1 group M subtype A, UniProt P24740, G1258R/S1259P); format: biochemical, HIV-1 subtype A strain FSU-A
# [5] = homologous strand transfer, 2 h, 100 nM IN, read-out: Inhibitory activity, IC50
smiles,measurement,setting,value
"C[C@@H]1CCO[C@H]2Cn3cc(C(=O)NCc4ccc(F)cc4F)c(=O)c(O)c3C(=O)N12 [DTG, dolutegravir]",FC (resistance),[1],10
same,FC (resistance),[2],> 100
CN(C)S(=O)(=O)c1cc(O)c(O)c2c1CN(Cc1ccc(F)c(Cl)c1)C2=O [XZ-259],ratio of IC50 for mutants over wt (FC),INB G140S/Q148K,13
same,IC50,INB G140S/Q148K; [5],850 ± 100 nM
same,ratio of IC50 for mutants over wt (FC),[3],1
same,IC50,[3]; [5],65 ± 10 nM
same,ratio of IC50 for mutants over wt (FC),INB G118R,1.2
same,IC50,INB G118R; [5],80 ± 20 nM
same,ratio of IC50 for mutants over wt (FC),INA G140S,3.8
same,IC50,INA G140S; [5],150 ± 50 nM
same,ratio of IC50 for mutants over wt (FC),INA E138K,1.25
same,IC50,INA E138K; [5],50 ± 15 nM
same,ratio of IC50 for mutants over wt (FC),INA Q148K,8.8
same,IC50,INA Q148K; [5],350 ± 100 nM
same,ratio of IC50 for mutants over wt (FC),INA G140S/Q148K,15
same,IC50,INA G140S/Q148K; [5],600 ± 150 nM
same,ratio of IC50 for mutants over wt (FC),INB E138K/Q148K,7.7
same,IC50,INB E138K/Q148K; [5],500 ± 200 nM
same,ratio of IC50 for mutants over wt (FC),INA E138K/Q148K,5
same,IC50,INA E138K/Q148K; [5],200 ± 50 nM
same,ratio of IC50 for mutants over wt (FC),INA G118R/E138K,0.75
same,IC50,INA G118R/E138K; [5],30 ± 10 nM
same,ratio of IC50 for mutants over wt (FC),INB G118R/E138K,1.2
same,IC50,INB G118R/E138K; [5],80 ± 15 nM
same,ratio of IC50 for mutants over wt (FC),INB Q148K,9.2
same,IC50,INB Q148K; [5],600 ± 100 nM
same,IC50,INB,77 nM
same,ratio of IC50 for mutants over wt (FC),[4],1
same,IC50,[4]; [5],40 ± 15 nM
same,ratio of IC50 for mutants over wt (FC),INB E138K,1
same,IC50,INB E138K; [5],70 ± 10 nM
same,ratio of IC50 for mutants over wt (FC),INB G140S,2.3
same,IC50,INB G140S; [5],150 ± 50 nM
same,ratio of IC50 for mutants over wt (FC),INA G118R,1
same,IC50,INA G118R; [5],40 ± 10 nM
